The target in assay [1] is BB7 (RNA-dependent RNA polymerase hepatitis C virus protein sequence derived from HCV replicon) (Hepatitis C virus genotype 1b, UniProt Q9WMX2). The assay is described as follows: Hepatitis C polymerase inhibition, BB7 sequence. Type of assay: biochemical. The note with it: Table 1B.
The target of assay [2] is T1, NS5B from the BK strain (genotype 1b) (Hepatitis C virus genotype 1b, UniProt P26663).
T1 construct: NS5B from the BK strain (genotype 1b) is expressed in E. coli as a protein in which the 21 C-terminal amino acids are replaced; made in house; host or cells: E. coli
Kind of assay: Hepatitis C polymerase inhibition, NS5B BK strain, 33P-GTP filter assay. Particulars: for IC50: NS5B BK strain; for HCV pol % inh at 20 μM: 20 μM compound. Format: biochemical. The method, boiled down:
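Radiolabelled RNA synthesis was measured by filter capture and scintillation counting after EDTA stop. His-tagged, C-terminally truncated (Δ21) genotype 1b BK NS5B from E. coli, pre-exposed to compound for 15 min, copied a self-primed RNA template (~3 nM) with α-[33P]-GTP for 2 h at room temperature.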

The mark [3] stands for this setting: Table 1A, read-out: HCV pol BK IC50.

Read-outs that look alike come from different tables or passages of the source. A value given as a limit tells only on which side of the number the result lay.

BB7 (RNA-dependent RNA polymerase hepatitis C virus protein sequence derived from HCV replicon), sequence (Q9WMX2 2420-3010): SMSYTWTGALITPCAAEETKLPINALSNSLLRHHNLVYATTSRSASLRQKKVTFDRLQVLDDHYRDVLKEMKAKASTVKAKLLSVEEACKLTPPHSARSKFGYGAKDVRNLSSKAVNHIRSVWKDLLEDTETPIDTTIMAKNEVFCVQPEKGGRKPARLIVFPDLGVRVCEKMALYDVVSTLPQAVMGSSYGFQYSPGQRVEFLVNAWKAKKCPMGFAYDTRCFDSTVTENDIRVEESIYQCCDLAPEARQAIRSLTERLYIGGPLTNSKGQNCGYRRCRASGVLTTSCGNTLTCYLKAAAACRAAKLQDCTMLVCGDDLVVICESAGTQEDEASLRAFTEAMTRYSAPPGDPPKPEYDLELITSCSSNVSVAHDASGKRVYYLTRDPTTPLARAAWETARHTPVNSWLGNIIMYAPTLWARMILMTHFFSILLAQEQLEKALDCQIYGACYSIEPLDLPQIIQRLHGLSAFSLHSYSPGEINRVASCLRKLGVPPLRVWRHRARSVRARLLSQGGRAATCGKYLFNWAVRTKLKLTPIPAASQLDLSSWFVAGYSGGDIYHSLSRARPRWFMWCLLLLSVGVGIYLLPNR
T1 sequence (P26663 2420-2989): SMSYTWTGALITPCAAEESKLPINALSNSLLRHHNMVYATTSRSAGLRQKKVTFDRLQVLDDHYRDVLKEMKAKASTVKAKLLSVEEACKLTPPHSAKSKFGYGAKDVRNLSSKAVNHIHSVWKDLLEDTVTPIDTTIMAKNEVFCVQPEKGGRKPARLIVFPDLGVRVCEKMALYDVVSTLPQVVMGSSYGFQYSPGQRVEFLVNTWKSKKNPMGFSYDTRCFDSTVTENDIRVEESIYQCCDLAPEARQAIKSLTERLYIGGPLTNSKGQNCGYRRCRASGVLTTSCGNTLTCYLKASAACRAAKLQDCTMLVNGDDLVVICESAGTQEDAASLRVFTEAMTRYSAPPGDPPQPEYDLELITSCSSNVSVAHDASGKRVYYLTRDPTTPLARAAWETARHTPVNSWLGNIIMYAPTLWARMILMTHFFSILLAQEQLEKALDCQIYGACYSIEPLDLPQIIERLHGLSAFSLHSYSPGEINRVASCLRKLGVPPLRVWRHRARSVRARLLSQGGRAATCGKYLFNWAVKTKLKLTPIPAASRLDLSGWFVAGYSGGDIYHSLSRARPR

The IC50 is the concentration that inhibits the measured activity by half. Take `CC[C@H](C)C1(CC(=O)O)OCCc2c1[nH]c1c(C)ccc(Cl)c21` (mixture of isomers) [Example 261, (1R*,10S)-[5-chloro-8-methyl-1-(1-methylpropyl)-1,3,4,9-tetrahydropyrano[3,4-b]indol-1-yl]acetic acid]: the IC50 in assay [1] amounted to 0.9 µM; in assay [2] (Table 1B, read-out: BK IC50), 0.4 µM.

For the compound `CC[C@H](C)C1(CC(=O)O)OCCc2c1[nH]c1c(C#N)ccc(C(F)(F)F)c21` (mixture of isomers) [Example 279, (1R*,10S)-[8-cyano-1-(1-methylpropyl)-5-trifluoromethyl-1,3,4,9-tetrahydropyrano[3,4-b]indol-1-yl]acetic acid], the IC50 stood at 2.4 µM in assay [1] and 2 µM in assay [2] (Table 1B, read-out: BK IC50).

With `CC[C@H](C)C1(CC(=O)O)OCCc2c1[nH]c1c(C)ccc([N+](=O)[O-])c21` (mixture of isomers) [Example 300, (1R*,10S)-[8-methyl-1-(1-methylpropyl)-5-nitro-1,3,4,9-tetrahydropyrano[3,4-b]indol-1-yl]acetic acid], the 50% inhibitory concentration (IC50) came to 0.25 µM in assay [1] and 0.14 µM in assay [2] (Table 1B, read-out: BK IC50).

Regarding `CC[C@H](C)C1(CC(=O)O)OCCc2c1[nH]c1c(C)cc(F)c(C#N)c21` (mixture of isomers) [Example 318, (1R*,10S)-[5-cyano-6-fluoro-8-methyl-1-(1-methylpropyl)-1,3,4,9-tetrahydropyrano[3,4-b]indol-1-yl]acetic acid], the IC50 in assay [1] was determined as 0.25 µM; in assay [2] (Table 1B, read-out: BK IC50), 0.14 µM.

With `CC[C@H](C)C1(CC(=O)O)OCCc2c1[nH]c1c(Cl)ccc(C#N)c21` (mixture of isomers) [Example 324], the IC50 was 0.35 µM in assay [1] and 0.2 µM in assay [2] (Table 1B, read-out: BK IC50).

Take `CC[C@H](C)[C@@]1(CC(=O)O)OCCc2c1[nH]c1c(C)ccc(C#N)c21` (racemic) [Example 289, (1R*,10S*)-[5-cyano-8-methyl-1-(1-methylpropyl)-1,3,4,9-tetrahydropyrano[3,4-b]indol-1-yl]acetic acid]: the IC50 in assay [1] was 0.23 µM; in assay [2] (Table 1B, read-out: BK IC50), 0.12 µM.

With `CC[C@@H](C)[C@@]1(CC(=O)O)OCCc2c1[nH]c1c(C)ccc(C#N)c21` (racemic) [Example 290, (1R*,10R*)-[5-cyano-8-methyl-1-(1-methylpropyl)-1,3,4,9-tetrahydropyrano[3,4-b]indol-1-yl]acetic acid], the IC50 in assay [1] was 4.9 µM; in assay [2] (Table 1B, read-out: BK IC50), 3.2 µM.

For `CCC(C)C1(CC(=O)O)OCCc2c1[nH]c1c(C)ccc(C#N)c21` (racemic) [Example 291, (1R*,10S)-[5-cyano-8-methyl-1-(1-methylpropyl)-1,3,4,9-tetrahydropyrano[3,4-b]indol-1-yl]acetic acid], the IC50 worked out at 0.5 µM in assay [1] and 0.23 µM in assay [2] (Table 1B, read-out: BK IC50).

With `CC[C@H](C)[C@@]1(CC(=O)O)OCCc2c1[nH]c1c(F)ccc(C#N)c21` (racemic) [Example 313, (1R*,10S*)-[5-cyano-8-fluoro-1-(1-methylpropyl)-1,3,4,9-tetrahydropyrano[3,4-b]indol-1-yl]acetic acid], the IC50 was 1.5 µM in assay [1] and 1.8 µM in assay [2] (Table 1B, read-out: BK IC50).

For the compound `CCC(C)C1(CC(=O)O)OCCc2c1[nH]c1c(F)ccc(C#N)c21` (racemic) [Example 314, (1R*,10S)-[5-cyano-8-fluoro-1-(1-methylpropyl)-1,3,4,9-tetrahydropyrano[3,4-b]indol-1-yl]acetic acid], the IC50 came to 3.1 µM in assay [1] and 1.4 µM in assay [2] (Table 1B, read-out: BK IC50).

Regarding `CC[C@@H](C)[C@@]1(C(=O)O)OCCc2c1[nH]c1c(C)ccc(C#N)c21` (racemic) [Example 336, (1R*,10R*)-[5-cyano-8-methyl-1-(1-methylpropyl)-1,3,4,9-tetrahydropyrano[3,4-b]indol-1-yl]carboxylic acid], the IC50 in assay [1] came to 8.7 µM; in assay [2] (Table 1B, read-out: BK IC50) it was 4.7 µM.

Consider `CC[C@H](C)[C@@]1(C(=O)O)OCCc2c1[nH]c1c(F)ccc(C#N)c21` (racemic) [Example 348, (1R*,10S*)-[5-cyano-8-fluoro-1-(1-methylpropyl)-1,3,4,9-tetrahydropyrano[3,4-b]indol-1-yl]carboxylic acid], for which the IC50 in assay [1] is greater than 30 µM; in assay [2] (Table 1B, read-out: BK IC50), greater than 30 µM.

With `CC[C@H](C)[C@@]1(C(=O)O)OCCc2c1[nH]c1c(C)ccc(C#N)c21` (relative stereo) [Example 335, (1R*,10S*)-[5-cyano-8-methyl-(1-methylpropyl)-1,3,4,9-tetrahydropyrano[3,4-b]indol-1-yl]carboxylic acid], the IC50 is greater than 30 µM in assay [1] and greater than 30 µM in assay [2] (Table 1B, read-out: BK IC50).

As to `CC[C@@H](C)[C@@]1(C(=O)O)OCCc2c1[nH]c1c(F)ccc(C#N)c21` (relative stereo) [Example 349, (1R*,10R*)-[5-cyano-8-fluoro-1-(1-methylpropyl)-1,3,4,9-tetrahydropyrano[3,4-b]indol--1-yl]carboxylic acid], the IC50 in assay [1] was greater than 24 µM; in assay [2] (Table 1B, read-out: BK IC50), 4.4 µM.

As for `CC[C@@H](C)[C@@]1(CC(=O)O)OCCc2c1[nH]c1c(F)ccc(C#N)c21` (single isomer, unassigned) [Example 312, (1R*,10R*)-[5-cyano-8-fluoro-1-(1-methylpropyl)-1,3,4,9-tetrahydropyrano[3,4-b]indol-1-yl]acetic acid], the IC50 in assay [1] was greater than 30 µM; in assay [2] (Table 1B, read-out: BK IC50), 16 µM.

Take `CCCC1(CC(=O)O)OCC(C)(C)c2c1[nH]c1c(Cl)ccc(Cl)c21` (stereo not drawn) [Example 230, (5,8-dichloro-4,4-dimethyl-1-propyl-1,3,4,9-tetrahydropyrano[3,4-b]indol-1-yl)acetic acid]: the IC50 in assay [2] (setting [3]) was determined as 3.1 µM.

On to `CCCC1(CC(=O)O)OCCc2c1n(C)c1c(Cl)ccc(Cl)c21` (stereo not drawn) [Example 232, (5,8-dichloro-9-methyl-1-propyl-1,3,4,9-tetrahydropyrano[3,4-b]indol-1-yl)acetic acid], for which the IC50 in assay [2] (setting [3]) was 7.6 µM.

`C=CCn1c2c(c3c(Cl)ccc(Cl)c31)CCOC2(CCC)CC(=O)O` (stereo not drawn) [Example 233, (9-allyl-5,8-dichloro-1-propyl-1,3,4,9-tetrahydropyrano[3,4-b]indol-1-yl)acetic acid]: the IC50 in assay [2] (setting [3]) was greater than 20 µM.

For the compound `CCCC1(CC(=O)O)OCCc2c1n(Cc1ccccc1)c1c(Cl)ccc(Cl)c21` (stereo not drawn) [Example 234, (9-benzyl-5,8-dichloro-1-propyl-1,3,4,9-tetrahydropyrano[3,4-b]indol-1-yl)acetic acid], in assay [2] (setting [3]), the IC50 was 13 µM.

In the case of `O=C(O)CC1(C2CCC2)OCCc2c1[nH]c1ccc(Cl)c(Cl)c21` (stereo not drawn) [Example 235, (5,6-dichloro-1-cyclobutyl-1,3,4,9-tetrahydropyrano[3,4-b]indol-1-yl)acetic acid], the IC50 in assay [1] is 5.4 µM; in assay [2] (Table 1B, read-out: BK IC50) it was 5.2 µM.

Regarding `O=C(O)CC1(C2CCCC2)OCCc2c1[nH]c1ccc(Cl)c(Cl)c21` (stereo not drawn) [Example 236, (5,6-dichloro-1-cyclopentyl-1,3,4,9-tetrahydropyrano[3,4-b]indol-1-yl)acetic acid], the IC50 came to 9.6 µM in assay [1] and 10 µM in assay [2] (Table 1B, read-out: BK IC50).

Regarding `COCC1(CC(=O)O)OCCc2c1[nH]c1ccc(Cl)c(Cl)c21` (stereo not drawn) [Example 237, (5,6-Dichloro-1-methoxymethyl-1,3,4,9-tetrahydropyrano[3,4-b]indol-1-yl)acetic acid], the IC50 was greater than 24 µM in assay [1] and greater than 27 µM in assay [2] (Table 1B, read-out: BK IC50).

Compound `CCOCC1(CC(=O)O)OCCc2c1[nH]c1cc(Cl)c(Cl)cc21` (stereo not drawn) [Example 241, (6,7-dichloro-1-ethoxymethyl-1,3,4,9-tetrahydropyrano[3,4-b]indol-1-yl)acetic acid] came in with an IC50 in assay [1] greater than 30 µM.

Consider `CC1(CC(=O)O)OCCc2c1[nH]c1c(Cl)ccc(Cl)c21` (stereo not drawn) [Example 242, (5,8-dichloro-1-methyl-1,3,4,9-tetrahydropyrano[3,4-b]indol-1-yl)acetic acid], for which the IC50 in assay [1] was 18 µM.

With `COCC1(CC(=O)O)OCCc2c1[nH]c1c(Cl)ccc(C(F)(F)F)c21` (stereo not drawn) [Example 264, (8-chloro-1-methoxymethyl-5-trifluoromethyl-1,3,4,9-tetrahydropyrano[3,4-b]indol-1-yl)acetic acid], in assay [2] (Table 1B, read-out: BK IC50), the IC50 was greater than 30 µM.

`N#Cc1ccc(F)c2[nH]c3c(c12)CCOC3(CC(=O)O)C1CCCCC1` (stereo not drawn) [Example 309, (5-cyano-1-cyclohexyl-8-fluoro-1,3,4,9-tetrahydropyrano[3,4-b]indol-1-yl)acetic acid]: in assay [2] (Table 1B, read-out: BK IC50), the IC50 was determined as 26 µM.

On to `CCC[C@]1(C(=O)O)OCCc2c1[nH]c1c(F)ccc(C#N)c21` [Example 344, (1S)-(5-cyano-8-fluoro-1-propyl-1,3,4,9-tetrahydropyrano[3,4-b]indol-1-yl)carboxylic acid], for which, in assay [2] (Table 1B, read-out: BK IC50), the IC50 is 0.7 µM.

As for “(1-propyl-8-thien-2-yl-1,3,4,9-tetrahydropyrano[3,4-b]indol-1-yl)acetic acid [Example 95]”, in assay [2] (Table 1A), the “HCV pol % inh at 20 μM” value amounted to 68%. For the same compound, the IC50 in assay [2] (setting [3]) came out at 14.4 µM.

“(4-cyclobutyl-5,8-dichloro-1-propyl-1,3,4,9-tetrahydropyrano[3,4-b]indol-1-yl)acetic acid [Example 231]”: in assay [2] (setting [3]), the IC50 was found to be 7.2 µM.

In the case of “(5-bromo-8-fluoro-1,6-dimethyl-1,3,4,9-tetrahydropyrano[3,4-b]indol-1-yl)acetic acid [Example 163]”, the “HCV pol % inh at 20 μM” value in assay [2] (Table 1A) worked out at 28%. Also, the IC50 in assay [2] (setting [3]) is greater than 10 µM.

“(5-cyano-8-fluoro-6-methyl-1-propyl-1,3,4,9-tetrahydropyrano[3,4-b]indol-1-yl)acetic acid [Example 221]”: the “HCV pol % inh at 20 μM” value in assay [2] (Table 1A) was determined as 81%. The IC50 in assay [2] (setting [3]) was 0.43 µM.

“(8-fluoro-5-iodo-6-methyl-1-propyl-1,3,4,9-tetrahydropyrano[3,4-b]indol-1-yl)acetic acid [Example 218]”: the “HCV pol % inh at 20 μM” value in assay [2] (Table 1A) is on record as 92%. Moreover, in assay [2] (setting [3]), the IC50 was found to be 0.29 µM.

(Values after patent US7217730B2, “Method for the use of pyranoindole derivatives to treat infection with Hepatitis C virus” (Wyeth, priority 2002, dated 2007).)
